Target: T1, cannabinoid receptor 1 (CB1) (Homo sapiens, UniProt P21554)
T1 construct: gene CNR1; human recombinant receptor expressed in Chem-1 cells
Assay: radioligand displacement binding assay
Assay type: cell-based

T1 sequence (P21554 whole entry): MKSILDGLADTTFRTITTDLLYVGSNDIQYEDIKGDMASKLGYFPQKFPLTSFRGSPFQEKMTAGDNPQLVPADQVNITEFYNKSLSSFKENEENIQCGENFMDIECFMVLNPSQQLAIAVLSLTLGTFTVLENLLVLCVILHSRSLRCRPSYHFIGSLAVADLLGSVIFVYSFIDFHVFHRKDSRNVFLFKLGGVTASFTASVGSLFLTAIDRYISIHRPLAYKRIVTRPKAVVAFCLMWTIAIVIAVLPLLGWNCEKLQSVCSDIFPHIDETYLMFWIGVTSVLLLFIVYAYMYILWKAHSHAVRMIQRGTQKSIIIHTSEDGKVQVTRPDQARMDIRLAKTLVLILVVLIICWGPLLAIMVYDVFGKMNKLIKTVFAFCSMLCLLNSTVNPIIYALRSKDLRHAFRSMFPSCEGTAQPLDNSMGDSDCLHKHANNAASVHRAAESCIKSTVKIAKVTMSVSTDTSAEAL

Molecule `O=c1c(-c2ccc(O)cc2)coc2cc(O)cc(O)c12` [genistein] has a Ki of 140 nM.

Reference: paper PMC12822132, “Targeting mechanosensitive cannabinoid receptor 1 with isoflavone prodrugs attenuates atherosclerotic endothelial dysfunction” (Journal of Biomedical Science, 2026)
